# Laboratory results as given in patent publication US20140093573A1, “NON-ENTERIC COATED PHARMACEUTICAL COMPOSITION AND USE THEREOF” (NATIONAL TAIWAN UNIVERSITY, priority 2012, published 2014).
# Tested on: Caco-2 cells
# Assay: Cellular uptake study (flow cytometry, confocal microscopy)
# Format: cell-based, Human
# Conditions: Caco-2 monolayer, 0.5 h incubation, 200 ng/mL coumarin-6 equivalent
# Protocol: Caco-2 cell monolayers approximately 21-24 days post seeding were used for the cellular uptake study. Before the experiments, the monolayers were washed with HBSS (pH 7.4) twice and then preincubated with HBSS at 37° C. for 30 min. The HBSS (control), free coumarin-6 solution (200 ng/mL), ERSNPs-C6 or PLGANPs-C6 suspension in HBSS equivalent to 200 ng/mL of coumarin-6 were added in the donor compartment while 3 mL of HBSS was added in the receiver compartment. These Caco-2 cell monolayers were incubated for 0.5 h and 1 h at 37° C. in an atmosphere of 5% CO2 and 90% relative humidity. The flow cytometry and confocal microscopy were used to assess the intracellular fluorescence. After 0.5 h and 1 h of incubation, the cell monolayers were washed with phosphate buffered saline (PBS, pH 7.4) three times following by trypsinization for 5 min (100 μL, 0.25% trypsin EDTA). Trypsinization was stopped by adding 1 mL of cold PBS. Cells were detached from the inserts by pipetting and centrifuged at 1000 rpm for 5 min The cells were resuspended in 2 mL PBS and analyzed by using fluorescent activated flow cytometry (BD FACS Calibur) and BD CellQuest software (BD Biosciences, NJ, USA). This experiment was performed in triplicate.
# For confocal microscopic study, after 0.5 hours of incubation at 37° C., cell monolayer was washed with PBS three times. […]
smiles,measurement,value
"CCN(CC)c1ccc2cc(-c3nc4ccccc4s3)c(=O)oc2c1 [coumarin-6, Coumarin-6]",cellular uptake efficiency (fluorescence intensity of cells),1.27±0.3%
